According to publication PMC12041370, “AARS2-catalyzed lactylation induces follicle development and premature ovarian insufficiency” (Cell Death Discovery, 2025):
Numbering of substitutions follows the chain as printed.

Columns and labels:
AARS2 [1] = molecular target: T1, AARS2 (Homo sapiens, UniProt Q5JTZ9, R199C); experiment: isothermal titration calorimetry (Microcal); assay type: binding; details: read-out: K
T1 construct: full-length human AARS2 985 aa
T1 sequence (Q5JTZ9 11-985 R199C): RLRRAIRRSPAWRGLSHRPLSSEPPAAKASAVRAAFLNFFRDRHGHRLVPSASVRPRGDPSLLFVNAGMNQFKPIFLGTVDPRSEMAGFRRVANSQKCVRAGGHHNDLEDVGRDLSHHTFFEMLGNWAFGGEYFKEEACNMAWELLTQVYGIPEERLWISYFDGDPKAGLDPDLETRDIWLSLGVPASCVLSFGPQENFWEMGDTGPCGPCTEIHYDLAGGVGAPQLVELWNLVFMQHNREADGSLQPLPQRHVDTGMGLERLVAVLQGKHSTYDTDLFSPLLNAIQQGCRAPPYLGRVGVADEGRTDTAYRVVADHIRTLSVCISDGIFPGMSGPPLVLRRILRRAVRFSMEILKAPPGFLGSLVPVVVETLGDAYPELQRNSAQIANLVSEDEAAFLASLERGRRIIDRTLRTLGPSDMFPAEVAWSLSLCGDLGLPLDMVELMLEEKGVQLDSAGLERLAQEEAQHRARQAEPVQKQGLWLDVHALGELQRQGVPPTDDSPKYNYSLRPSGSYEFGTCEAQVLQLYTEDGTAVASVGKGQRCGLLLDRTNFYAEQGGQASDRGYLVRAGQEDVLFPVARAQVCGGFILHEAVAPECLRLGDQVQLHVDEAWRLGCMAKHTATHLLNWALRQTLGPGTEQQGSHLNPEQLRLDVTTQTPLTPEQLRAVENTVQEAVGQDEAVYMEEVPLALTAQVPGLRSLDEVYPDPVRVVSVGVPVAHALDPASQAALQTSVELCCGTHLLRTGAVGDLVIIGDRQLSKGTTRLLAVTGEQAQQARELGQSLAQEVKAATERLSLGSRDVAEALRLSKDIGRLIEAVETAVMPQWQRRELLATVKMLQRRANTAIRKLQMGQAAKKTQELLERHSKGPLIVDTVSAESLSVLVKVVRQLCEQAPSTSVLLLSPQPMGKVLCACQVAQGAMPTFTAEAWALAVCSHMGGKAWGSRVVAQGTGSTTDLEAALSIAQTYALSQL
From the text: isothermal titration calorimetry (Microcal) on AARS2 | For lactate binding to the R199C mutant, the parameters were as follows

AARS2 [2] = molecular target: T2, AARS2 (Homo sapiens, UniProt Q5JTZ9); experiment: isothermal titration calorimetry (Microcal); assay type: binding; details: read-out: K
T2 construct: full-length human AARS2 985 aa
T2 sequence (Q5JTZ9 11-985): T1 sequence (Q5JTZ9 11-985 R199C) with C189R
From the text: isothermal titration calorimetry (Microcal) on AARS2 | The parameters of lactate binding to AARS2 were as follows

AARS2 [3] = molecular target: T2, AARS2; experiment: in vitro lactylation of PDHA1 and CPT2, Western blot; assay type: biochemical; details: β-alanine in reaction mix, concentration not told

Row | Kd (AARS2 [1]) | Kd (AARS2 [2]) | Compound | inhibition (AARS2 [3])
1 | 2.6 to 3.7 µM | 8.23 to 17.9 µM | C[C@H](O)C(=O)O [lactate] | –
2 | – | – | NCCC(=O)O [β-alanine] | β-alanine inactivated lactyltransferase activities of both AARS2 and R199C
